# Assay results taken from ChEMBL document CHEMBL1141416, “Discovery of a potent and selective prostaglandin D2 receptor antagonist, [(3R)-4-(4-chloro-benzyl)-7-fluoro-5-(methylsulfonyl)-1,2,3,4-tetrahydrocyclopenta[b]indol-3-yl]-acetic acid (MK-0524)” (J Med Chem, 2007).
# Tests used:
# [1] = Metabolic stability in rat hepatocytes after 2 hrs at 50 uM; assay type: ADME, cell-based, Hepatocyte; conditions: read-out: Stability
# [2] = Activity at human TP receptor in platelet rich plasma assessed as inhibition […]-induced platelet aggregation
# [3] = biological target: Prostaglandin E2 receptor EP4 subtype (Homo sapiens, UniProt P35408); assay: Binding affinity to human EP4 receptor expressed in HEK293 cells; assay type: cell-based
# Prostaglandin E2 receptor EP4 subtype, sequence (P35408 whole entry): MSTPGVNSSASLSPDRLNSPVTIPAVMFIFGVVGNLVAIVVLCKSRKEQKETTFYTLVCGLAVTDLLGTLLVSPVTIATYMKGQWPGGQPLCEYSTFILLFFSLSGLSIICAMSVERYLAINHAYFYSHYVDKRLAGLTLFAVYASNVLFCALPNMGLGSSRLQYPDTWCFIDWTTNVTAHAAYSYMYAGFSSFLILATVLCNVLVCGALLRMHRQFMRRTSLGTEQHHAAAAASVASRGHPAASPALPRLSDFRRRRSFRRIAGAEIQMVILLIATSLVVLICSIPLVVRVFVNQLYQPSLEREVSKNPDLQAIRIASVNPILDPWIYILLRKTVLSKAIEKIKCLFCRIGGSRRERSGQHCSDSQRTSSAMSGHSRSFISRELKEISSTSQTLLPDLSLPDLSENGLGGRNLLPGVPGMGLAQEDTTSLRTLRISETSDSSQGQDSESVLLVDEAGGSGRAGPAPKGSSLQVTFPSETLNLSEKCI
# [4] = Tmax in Sprague-Dawley rat biliary fluid by bile duct cannulation study at 5 mg/kg, iv; assay type: ADME, organism-based; set-up: dose 5 mg/kg, route intravenous
# [5] = Bioavailability in Sprague-Dawley rat at 10 mg/kg, po and 5 mg/kg, iv; assay type: ADME, organism-based; conditions: in vivo
# [6] = Plasma half life in Sprague-Dawley rat at 5 mg/kg, iv; assay type: ADME, organism-based; set-up: dose 5 mg/kg, route intravenous
# [7] = Cmax in Sprague-Dawley rat biliary fluid by bile duct cannulation study at 5 mg/kg, iv; assay type: ADME, organism-based; set-up: dose 5 mg/kg, route intravenous
# [8] = Cmax in Sprague-Dawley rat at 10 mg/kg, po; assay type: ADME, organism-based; set-up: dose 10 mg/kg, route oral; conditions: in vivo
# [9] = (§1) Cmax in Sprague-Dawley rat after 6 hrs at 10 mg/kg, po; assay type: ADME, organism-based; set-up: dose 10 mg/kg, route oral; conditions: Sprague-Dawley, in vivo
# [10] = Volume of distribution in Sprague-Dawley rat at 10 mg/kg, po and 5 mg/kg, iv; assay type: ADME, organism-based; conditions: in vivo
# [11] = Plasma clearance in Sprague-Dawley rat at 10 mg/kg, po and 5 mg/kg, iv; assay type: ADME, organism-based; set-up: unit not given here
# [12] = Cmax in Sprague-Dawley rat after 6 hrs at 100 mg/kg, po; assay type: ADME, organism-based; set-up: dose 100 mg/kg, route oral; conditions: in vivo
# Rattus norvegicus [13] = assay: as §1; assay type: ADME, organism-based; set-up: dose 10 mg/kg, route oral; conditions: in vivo, 6 h
# Rattus norvegicus [14] = assay: AUC (0-6hrs) in Sprague-Dawley rat at 10 mg/kg, po; assay type: ADME, organism-based, Plasma; set-up: time < 6 hr, dose 10 mg/kg, route oral; conditions: in vivo
# Rattus norvegicus [15] = assay: AUC (0-6hrs) in Sprague-Dawley rat at 100 mg/kg, po; assay type: ADME, organism-based, Plasma; set-up: time < 6 hr, dose 100 mg/kg, route oral; conditions: in vivo
# [16] = Cmax in Sprague-Dawley rat at 100 mg/kg, po; assay type: ADME, organism-based; set-up: dose 100 mg/kg, route oral; conditions: in vivo
# Liver microsomes [17] = assay: Covalent protein binding in human liver microsomes in presence of NADPH after 1 hr at 10 uM; assay type: ADME, Microsome
# Hepatocyte [18] = assay: Protein binding in human hepatocyte after 2 hrs at 10 uM; assay type: ADME, cell-based; conditions: hepatocytes
# Hepatocyte [19] = assay: Covalent protein binding in rat hepatocyte after 2 hrs at 10 uM; assay type: ADME, cell-based; conditions: hepatocytes
# Liver microsomes [20] = assay: Protein binding in rat liver microsomes in presence of NADPH after 1 hr at 10 uM; assay type: ADME, Microsome
# [21] = biological target: Prostaglandin F2-alpha receptor (Homo sapiens, UniProt P43088); assay: Binding affinity to human FP receptor expressed in HEK293 cells; assay type: cell-based
# Prostaglandin F2-alpha receptor, sequence (P43088 whole entry): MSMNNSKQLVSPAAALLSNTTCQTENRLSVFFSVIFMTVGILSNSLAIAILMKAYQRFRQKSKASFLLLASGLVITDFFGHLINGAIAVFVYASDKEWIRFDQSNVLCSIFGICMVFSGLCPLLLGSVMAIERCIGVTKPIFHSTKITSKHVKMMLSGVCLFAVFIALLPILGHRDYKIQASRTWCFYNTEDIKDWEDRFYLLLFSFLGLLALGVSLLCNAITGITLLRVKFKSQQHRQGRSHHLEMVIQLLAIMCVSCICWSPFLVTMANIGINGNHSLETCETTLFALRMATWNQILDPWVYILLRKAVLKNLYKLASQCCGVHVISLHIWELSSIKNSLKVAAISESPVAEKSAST
# [22] = biological target: T1, Prostaglandin E2 receptor EP3 subtype (Homo sapiens, UniProt P43115); assay: Binding affinity to human EP3 receptor expressed in HEK293 cells; assay type: cell-based
# T1 sequence (P43115 whole entry): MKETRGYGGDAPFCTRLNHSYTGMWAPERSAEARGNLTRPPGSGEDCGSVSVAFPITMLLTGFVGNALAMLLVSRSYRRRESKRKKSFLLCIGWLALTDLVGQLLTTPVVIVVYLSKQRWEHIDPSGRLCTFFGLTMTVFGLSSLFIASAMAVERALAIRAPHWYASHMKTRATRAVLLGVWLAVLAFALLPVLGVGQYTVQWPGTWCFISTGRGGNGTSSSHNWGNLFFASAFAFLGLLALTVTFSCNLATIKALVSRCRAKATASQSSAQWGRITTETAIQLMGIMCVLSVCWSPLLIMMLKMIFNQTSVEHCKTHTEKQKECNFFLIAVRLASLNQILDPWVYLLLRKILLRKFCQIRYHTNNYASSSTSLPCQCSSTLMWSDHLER
# Thromboxane A2 receptor = biological target: T2, Thromboxane A2 receptor (Homo sapiens, UniProt P21731); assay: Binding affinity to human TP receptor expressed in HEK293 cells; assay type: cell-based
# T2 sequence (P21731 whole entry): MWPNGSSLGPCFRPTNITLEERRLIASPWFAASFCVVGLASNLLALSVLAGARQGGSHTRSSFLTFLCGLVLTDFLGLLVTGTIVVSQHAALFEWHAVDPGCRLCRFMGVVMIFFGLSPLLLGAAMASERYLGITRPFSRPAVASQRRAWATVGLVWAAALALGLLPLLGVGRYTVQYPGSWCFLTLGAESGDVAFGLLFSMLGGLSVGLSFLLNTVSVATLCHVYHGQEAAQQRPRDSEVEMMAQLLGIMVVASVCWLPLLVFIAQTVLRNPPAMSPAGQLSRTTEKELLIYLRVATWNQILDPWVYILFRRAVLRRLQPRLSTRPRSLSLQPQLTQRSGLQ
# Prostacyclin receptor = Prostacyclin receptor (Homo sapiens, UniProt P43119); assay: Binding affinity to human IP receptor expressed in HEK293 cells; assay type: cell-based
# Prostacyclin receptor, sequence (P43119 whole entry): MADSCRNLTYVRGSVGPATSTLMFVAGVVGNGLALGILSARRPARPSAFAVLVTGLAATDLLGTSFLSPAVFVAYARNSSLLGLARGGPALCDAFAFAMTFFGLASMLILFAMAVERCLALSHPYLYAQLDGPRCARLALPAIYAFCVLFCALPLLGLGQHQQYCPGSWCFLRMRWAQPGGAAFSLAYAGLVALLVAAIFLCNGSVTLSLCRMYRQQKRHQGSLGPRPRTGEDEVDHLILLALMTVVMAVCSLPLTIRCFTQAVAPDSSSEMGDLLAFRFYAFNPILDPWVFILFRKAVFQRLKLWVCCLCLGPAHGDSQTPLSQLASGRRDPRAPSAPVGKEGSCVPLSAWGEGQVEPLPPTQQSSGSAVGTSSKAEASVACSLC
# [23] = biological target: T3, Prostaglandin D2 receptor (Homo sapiens, UniProt Q13258); assay: Activity at human DP receptor in platelet rich plasma assessed as inhibition of PGD2-induced cAMP accumulation; assay type: functional
# T3 sequence (Q13258 whole entry): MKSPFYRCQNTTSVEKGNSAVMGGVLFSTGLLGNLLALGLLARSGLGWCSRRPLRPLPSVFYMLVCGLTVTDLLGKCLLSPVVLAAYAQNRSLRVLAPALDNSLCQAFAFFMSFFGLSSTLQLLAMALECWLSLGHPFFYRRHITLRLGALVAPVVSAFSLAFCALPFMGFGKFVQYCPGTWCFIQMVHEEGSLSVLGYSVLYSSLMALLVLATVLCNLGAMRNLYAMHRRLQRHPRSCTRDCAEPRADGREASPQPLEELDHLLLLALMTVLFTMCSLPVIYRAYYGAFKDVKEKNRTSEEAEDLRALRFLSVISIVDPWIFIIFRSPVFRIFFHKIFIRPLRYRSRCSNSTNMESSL
# [24] = biological target: Prostaglandin E2 receptor EP2 subtype (Homo sapiens, UniProt P43116); assay: Binding affinity to human EP2 receptor expressed in HEK293 cells; assay type: cell-based
# Prostaglandin E2 receptor EP2 subtype, sequence (P43116 whole entry): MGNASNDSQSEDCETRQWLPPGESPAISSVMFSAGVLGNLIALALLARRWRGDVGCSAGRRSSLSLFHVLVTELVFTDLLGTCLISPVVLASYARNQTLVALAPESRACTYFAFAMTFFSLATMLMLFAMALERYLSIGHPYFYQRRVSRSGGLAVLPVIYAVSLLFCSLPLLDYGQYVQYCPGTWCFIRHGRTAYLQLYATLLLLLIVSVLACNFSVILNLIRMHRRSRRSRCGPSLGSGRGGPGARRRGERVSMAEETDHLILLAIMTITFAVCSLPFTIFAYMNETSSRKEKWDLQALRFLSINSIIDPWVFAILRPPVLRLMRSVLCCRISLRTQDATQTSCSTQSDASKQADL
# [25] = biological target: T3, Prostaglandin D2 receptor; assay: Activity at human DP receptor in washed platelets assessed as inhibition of PGD2-induced cAMP accumulation; assay type: functional
# [26] = biological target: T3, Prostaglandin D2 receptor; assay: Binding affinity to human DP receptor expressed in HEK293 cells; assay type: cell-based
# [27] = biological target: T4, Prostaglandin E2 receptor EP1 subtype (Homo sapiens, UniProt P34995); assay: Binding affinity to human EP1 receptor expressed in HEK293 cells; assay type: cell-based
# T4 sequence (P34995 whole entry): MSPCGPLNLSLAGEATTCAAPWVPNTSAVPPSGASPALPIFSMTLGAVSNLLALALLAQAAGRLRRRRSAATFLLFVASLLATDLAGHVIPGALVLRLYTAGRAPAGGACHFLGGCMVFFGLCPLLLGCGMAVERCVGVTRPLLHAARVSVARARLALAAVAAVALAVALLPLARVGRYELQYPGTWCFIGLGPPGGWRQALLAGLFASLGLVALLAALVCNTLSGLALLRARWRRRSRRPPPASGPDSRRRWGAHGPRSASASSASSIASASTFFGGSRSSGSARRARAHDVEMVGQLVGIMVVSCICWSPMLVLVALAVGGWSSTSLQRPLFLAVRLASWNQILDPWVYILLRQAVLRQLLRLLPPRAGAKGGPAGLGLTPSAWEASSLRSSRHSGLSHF
# [28] = Plasma concentration in sheep allergic rhinitis model after 30 mins at 0.1 mg/kg, iv
# [29] = Plasma concentration in sheep allergic rhinitis model after 30 mins at 0.03 mg/kg, iv
structure (smiles),measurement,setting,value
CC(O)c1cc(S(C)(=O)=O)cc2c3c(n(Cc4ccc(Cl)cc4)c12)[C@@H](CC(=O)O)CC3 (stereo not given in full),"remaining at 2 h, 50 µM",[1],100%
same,IC50,[2],43 µM
same,Ki,[3],> 20 µM
CS(=O)(=O)c1cc(F)cc2c3c(n(Cc4ccc(Cl)cc4)c12)[C@@H](CC(=O)[O-])CC3.[Na+],Tmax,[4],0.5 h
same,bioavailability,[5],79%
same,half-life,[6],7 h
same,Cmax,[7],103 µM
same,Cmax,[8],39 µM
same,Cmax,[9],6.3 µM
same,Vdss,[10],0.5 Not_given
same,clearance,[11],2.4
CC(=O)c1cc(S(C)(=O)=O)cc2c3c(n(Cc4ccc(Cl)cc4)c12)[C@@H](CC(=O)[O-])CC3.[Na+],Tmax,[4],0 h
same,bioavailability,[5],128%
same,half-life,[6],1.4 h
same,Cmax,[7],1100 µM
same,Cmax,[12],7 µM
same,Cmax,[8],21 µM
same,Cmax,Rattus norvegicus [13],0.6 µM
same,Vdss,[10],0.7 Not_given
same,AUC,Rattus norvegicus [14],30 µM·h
same,AUC,Rattus norvegicus [15],120 µM·h
same,clearance,[11],14
same,Cmax,[16],31 µM
CC(=O)c1cc(F)cc2c3c(n(Cc4ccc(Cl)cc4)c12)[C@@H](CC(=O)[O-])CC3.[Na+],Tmax,[4],2.5 h
same,bioavailability,[5],52%
same,half-life,[6],4 h
same,Cmax,[7],81 µM
same,Cmax,[8],21 µM
same,Cmax,[9],7.5 µM
same,Vdss,[10],0.5 Not_given
same,clearance,[11],1.9
CC(O)c1cc(S(C)(=O)=O)cc2c3c(n(Cc4ccc(Cl)cc4)c12)[C@@H](CC(=O)[O-])CC3.[Na+] (stereo not given in full),Tmax,[4],0 h
same,bioavailability,[5],8%
same,half-life,[6],< 1 h
same,Cmax,[7],3900 µM
same,Cmax,[8],0.29 µM
same,Cmax,[9],0.03 µM
same,Vdss,[10],0.8 Not_given
same,clearance,[11],50
O=[14C](O)C[C@H]1CCc2c1n(Cc1ccc(Cl)cc1)c1c(Br)cc(F)cc21,Activity,Liver microsomes [17],33 pmol/mg/h
same,Activity,Hepatocyte [18],33 pmol/mg/h
same,Activity,Hepatocyte [19],74 pmol/mg/h
same,Activity,Liver microsomes [20],460 pmol/mg/h
[3H]C([3H])([3H])S(=O)(=O)c1cc(C(C)O)c2c(c1)c1c(n2Cc2ccc(Cl)cc2)[C@@H](CC(=O)O)CC1 (stereo not given in full),Activity,Liver microsomes [17],9 pmol/mg/h
same,Activity,Hepatocyte [18],< 5 pmol/mg/h
same,Activity,Hepatocyte [19],9 pmol/mg/h
same,Activity,Liver microsomes [20],13 pmol/mg/h
CC(=O)c1cc(F)cc2c3c(n(Cc4ccc(Cl)cc4)c12)[C@@H](C[14C](=O)O)CC3,Activity,Liver microsomes [17],46 pmol/mg/h
same,Activity,Hepatocyte [18],16 pmol/mg/h
same,Activity,Hepatocyte [19],45 pmol/mg/h
same,Activity,Liver microsomes [20],290 pmol/mg/h
O=C([O-])C[C@H]1CCc2c1n(Cc1ccc(Cl)cc1)c1c(Br)cc(F)cc21.[Na+],Tmax,[4],1 h
same,bioavailability,[5],41%
same,half-life,[6],12 h
same,Cmax,[7],29 µM
same,Cmax,[8],10 µM
same,Cmax,[9],3.7 µM
same,Vdss,[10],0.4 Not_given
same,clearance,[11],1.4
CC(=O)c1cc(S(C)(=O)=O)cc2c3c(n(Cc4ccc(Cl)cc4)c12)[C@@H](CC(=O)O)CC3,"remaining at 2 h, 50 µM",[1],93%
same,IC50,[2],8.4 µM
CC(=O)c1cc(F)cc2c3c(n(Cc4ccc(Cl)cc4)c12)[C@@H](CC(=O)O)CC3,Ki,[21],> 20 µM
same,Ki,[22],1.2 µM
same,Ki,Thromboxane A2 receptor,0.014 µM (antagonist)
same,Ki,Prostacyclin receptor,14 µM
same,"remaining at 2 h, 50 µM",[1],35%
same,Ki,[3],> 20 µM
same,IC50,[23],0.015 µM (antagonist)
same,Ki,[24],0.31 µM (antagonist)
same,IC50,[25],0.00029 µM (antagonist)
same,Ki,[26],0.0011 µM (antagonist)
same,Ki,[27],> 9 µM
[3H]C([3H])([3H])S(=O)(=O)c1cc(C(C)=O)c2c(c1)c1c(n2Cc2ccc(Cl)cc2)[C@@H](CC(=O)O)CC1,Activity,Liver microsomes [17],18 pmol/mg/h
same,Activity,Hepatocyte [18],5 pmol/mg/h
same,Activity,Hepatocyte [19],8 pmol/mg/h
same,Activity,Liver microsomes [20],23 pmol/mg/h
O=C(O)C[C@H]1CCc2c1n(Cc1ccc(Cl)cc1)c1c(Br)cc(F)cc21,Ki,[21],14 µM
same,Ki,[22],0.47 µM (antagonist)
same,Ki,Thromboxane A2 receptor,0.00084 µM (antagonist)
same,Ki,Prostacyclin receptor,0.4 µM (antagonist)
same,"remaining at 2 h, 50 µM",[1],42%
same,Ki,[3],4.4 µM
same,IC50,[23],0.023 µM (antagonist)
same,Ki,[24],0.41 µM (antagonist)
same,IC50,[25],0.00026 µM (antagonist)
same,Ki,[26],0.0015 µM (antagonist)
same,Ki,[27],4.4 µM
CS(=O)(=O)c1cc(F)cc2c3c(n(Cc4ccc(Cl)cc4)c12)[C@@H](CC(=O)O)CC3 [LAROPIPRANT],concentration at 0.5 h,[28],0.67 µM
same,concentration at 0.5 h,[29],0.091 µM
same,"remaining at 2 h, 50 µM",[1],32%
